In assay [1] the target is T1, human calcitonin receptor (hCTR) (Homo sapiens, UniProt P30988).
T1 construct: expressed in transfected cells
T1 sequence (P30988 25-474): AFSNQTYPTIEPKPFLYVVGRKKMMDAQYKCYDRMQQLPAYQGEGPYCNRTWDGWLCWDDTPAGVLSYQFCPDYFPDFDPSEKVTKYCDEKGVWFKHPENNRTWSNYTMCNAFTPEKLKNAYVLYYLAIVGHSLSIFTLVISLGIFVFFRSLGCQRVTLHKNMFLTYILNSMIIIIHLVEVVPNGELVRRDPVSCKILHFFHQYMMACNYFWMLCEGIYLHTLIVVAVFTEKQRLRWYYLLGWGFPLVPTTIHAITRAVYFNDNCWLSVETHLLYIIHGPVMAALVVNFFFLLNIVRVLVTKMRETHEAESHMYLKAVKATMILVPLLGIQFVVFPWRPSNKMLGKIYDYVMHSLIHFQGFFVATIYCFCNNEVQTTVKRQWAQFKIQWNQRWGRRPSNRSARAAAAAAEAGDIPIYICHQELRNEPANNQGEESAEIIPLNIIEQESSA
Kind of assay: cAMP production in 1321N1 cells with stable recombinant expression of human calcitonin receptor (hCTR). The settings on record: cAMP, 1321N1 cells, assay buffer with 0.1% BSA; read-out: EC50 (pM) hCTR. The class given is cell-based. Put shortly: (§1)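 EC50 values come from 4-parameter logistic fits of HTRF cAMP signal, normalised to maximal calcitonin or amylin effect. Peptides were tested in duplicate for 30 min at RT in IBMX-containing (0.5 mM) BSA/HEPES buffer pH 7.4 on stable 1321N1 (human CTR, AMYR3) or HEK (rat CTR, AMYR3) lines.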
For orientation: Cyclic AMP is a second messenger, typically raised through Gs and lowered through Gi signalling.

Assay [2] addresses T2, human amylin receptor (calcitonin receptor co-expressed with receptor activity modifying protein, RAMP3) (hAMYR3) (Homo sapiens, UniProt O60896+P30988).
T2 construct: expressed in transfected cells
T2 sequence (P30988 25-474): T1 sequence (P30988 25-474)
T2 sequence (O60896 24-148 partner): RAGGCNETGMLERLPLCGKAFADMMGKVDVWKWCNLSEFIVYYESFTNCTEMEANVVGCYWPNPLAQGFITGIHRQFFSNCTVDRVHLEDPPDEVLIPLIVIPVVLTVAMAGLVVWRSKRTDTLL
Briefly: cAMP production in 1321N1 cells with stable recombinant expression of human amylin receptor (hAMYR3). In kind it is cell-based. The settings on record: for Ratio (selectivity hAMYR vs hCTR, ratio of EC50 values at the two receptors): EC50 hCTR / EC50 hAMYR3; for EC50: cAMP, 1321N1 cells, assay buffer with 0.1% BSA, read-out: EC50 (pM) hAMYR3. Put shortly: as §1

The values below come from patent US20240067693A1, “POLYPEPTIDES AND USES THEREOF” (MEDIMMUNE LIMITED, priority 2020, published 2024).

SMILES strings stand for the structures. Numbered stars: 1 amine (or outer) side, 2 acyl side, 3 side chain; on linkers, the order of the positions; unused ones are H or OH. Bridge positions count the residues as written; N and C are the ends. Square brackets hold non-standard residues; d marks the D form. Side chains are listed from the residue outwards. Peptide text beside a SMILES is read from it. * marks the point of attachment. C18 diacid = O=C(O)CCCCCCCCCCCCCCCCC(=O)*; γGlu = O=C(O)[C@H](CCC(=O)[*:2])N[*:1]; Aib = CC(C)(N)C(=O)O

In general, EC50 refers to the midpoint of the concentration-response curve.

For `CC[C@H](C)[C@H](NC(=O)[C@@H]1CCCN1C(=O)C(C)(C)NC(=O)[C@H](Cc1ccccc1)NC(=O)[C@H](CC(N)=O)NC(=O)[C@H](CC(N)=O)NC(=O)[C@H](CO)NC(=O)[C@H](CO)NC(=O)[C@H](Cc1c[nH]cn1)NC(=O)[C@@H](NC(=O)[C@H](CC(C)C)NC(=O)[C@H](Cc1ccccc1)NC(=O)[C@H](CC(N)=O)NC(=O)[C@H](C)NC(=O)[C@H](CC(C)C)NC(=O)[C@H](CCCNC(=N)N)NC(=O)[C@H](CCC(N)=O)NC(=O)[C@@H](NC(=O)[C@H](C)NC(=O)[C@@H]1CSSC[C@H](NC(=O)[C@H](CCCCN)NC(=O)[C@@H](N)CCCCNC(=O)CC[C@H](NC(=O)CCCCCCCCCCCCCCCCC(=O)O)C(=O)O)C(=O)N[C@@H](CC(N)=O)C(=O)N[C@@H]([C@@H](C)O)C(=O)N[C@@H](C)C(=O)N[C@@H]([C@@H](C)O)C(=O)N1)[C@@H](C)O)C(C)C)C(=O)N[C@@H](CC(C)C)C(=O)N1CCC[C@H]1C(=O)N1CCC[C@H]1C(=O)N[C@H](C(=O)N[C@@H](CC(N)=O)C(=O)N[C@H](C(=O)NCC(=O)N[C@@H](CO)C(=O)N[C@@H](CC(N)=O)C(=O)N[C@H](C(=O)N[C@@H](Cc1ccc(O)cc1)C(N)=O)[C@@H](C)O)C(C)C)[C@@H](C)O` [Peptide 110, K(γE-C18diacid)K[CNTATC]ATQRLANFLVHSSNNF(Aib)PILPPTNVGSNTY-amide] (H-K([γGlu-C18 diacid])KCNTATCATQRLANFLVHSSNNF[Aib]PILPPTNVGSNTY-NH2; disulfide 3-8; N-terminus assumed), in assay [1], the EC50 stood at 541 pM. For the same molecule, in assay [2], the “Ratio (selectivity hAMYR vs hCTR, ratio of EC50 values at the two receptors)” value was 3 and the half-maximal effective concentration (EC50) turned out to be 204 pM.
On the same counts, the results for `CC[C@H](C)[C@H](NC(=O)[C@@H]1CCCN1C(=O)CNC(=O)[C@H](Cc1ccccc1)NC(=O)[C@H](CC(N)=O)NC(=O)[C@@H]1CCCN1C(=O)[C@H](CO)NC(=O)[C@H](CO)NC(=O)[C@H](Cc1c[nH]cn1)NC(=O)C(C)(C)NC(=O)[C@H](CC(C)C)NC(=O)[C@H](Cc1ccccc1)NC(=O)[C@H](CC(N)=O)NC(=O)[C@H](C)NC(=O)[C@H](CC(C)C)NC(=O)[C@H](CCCNC(=N)N)NC(=O)[C@H](CCC(N)=O)NC(=O)[C@@H](NC(=O)[C@H](C)NC(=O)[C@@H]1CSSC[C@H](NC(=O)[C@H](CCCCN)NC(=O)[C@@H](N)CCCCNC(=O)CC[C@H](NC(=O)CCCCCCCCCCCCCCCCC(=O)O)C(=O)O)C(=O)N[C@@H](CC(N)=O)C(=O)N[C@@H]([C@@H](C)O)C(=O)N[C@@H](C)C(=O)N[C@@H]([C@@H](C)O)C(=O)N1)[C@@H](C)O)C(=O)N[C@@H](CC(C)C)C(=O)N1CCC[C@H]1C(=O)N1CCC[C@H]1C(=O)N[C@H](C(=O)N[C@@H](CC(N)=O)C(=O)N[C@H](C(=O)NCC(=O)N[C@@H](CO)C(=O)N[C@@H](CC(N)=O)C(=O)N[C@H](C(=O)N[C@@H](Cc1ccc(O)cc1)C(N)=O)[C@@H](C)O)C(C)C)[C@@H](C)O` [Peptide 132] (H-K([γGlu-C18 diacid])KCNTATCATQRLANFL[Aib]HSSPNFGPILPPTNVGSNTY-NH2; disulfide 3-8) are 3850 pM, 9.3 and 416 pM.
On the same counts, the results for `CC[C@H](C)[C@H](NC(=O)[C@@H]1CCCN1C(=O)CNC(=O)[C@H](Cc1ccccc1)NC(=O)[C@H](CC(N)=O)NC(=O)C(C)(C)NC(=O)[C@H](CO)NC(=O)[C@H](CO)NC(=O)[C@H](Cc1c[nH]cn1)NC(=O)[C@H](CO)NC(=O)[C@H](CC(C)C)NC(=O)[C@H](Cc1ccccc1)NC(=O)[C@H](CC(N)=O)NC(=O)[C@H](C)NC(=O)[C@H](CC(C)C)NC(=O)[C@H](CCCNC(=N)N)NC(=O)[C@H](CCC(N)=O)NC(=O)[C@@H](NC(=O)[C@H](C)NC(=O)[C@@H]1CSSC[C@H](NC(=O)[C@H](CCCCN)NC(=O)[C@@H](N)CCCCNC(=O)CC[C@H](NC(=O)CCCCCCCCCCCCCCCCC(=O)O)C(=O)O)C(=O)N[C@@H](CC(N)=O)C(=O)N[C@@H]([C@@H](C)O)C(=O)N[C@@H](C)C(=O)N[C@@H]([C@@H](C)O)C(=O)N1)[C@@H](C)O)C(=O)N[C@@H](CC(C)C)C(=O)N1CCC[C@H]1C(=O)N1CCC[C@H]1C(=O)N[C@H](C(=O)N1CCC[C@H]1C(=O)N[C@H](C(=O)NCC(=O)N[C@@H](CO)C(=O)N[C@@H](CC(N)=O)C(=O)N[C@H](C(=O)N[C@@H](Cc1ccc(O)cc1)C(N)=O)[C@@H](C)O)C(C)C)[C@@H](C)O` [Peptide 53, K(γE-C18diacid)K[CNTATC]ATQRLANFLSHSS(Aib)NFGPILPPTPVGSNTY-amide] (H-K([γGlu-C18 diacid])KCNTATCATQRLANFLSHSS[Aib]NFGPILPPTPVGSNTY-NH2; disulfide 3-8; N-terminus assumed) are 235 pM, 2 and 98 pM.
On the same counts, the results for `CC[C@H](C)[C@H](NC(=O)[C@@H]1CCCN1C(=O)CNC(=O)[C@H](Cc1ccccc1)NC(=O)[C@H](CC(N)=O)NC(=O)C(C)(C)NC(=O)[C@H](CO)NC(=O)[C@H](CO)NC(=O)[C@H](Cc1c[nH]cn1)NC(=O)[C@H](CCCNC(=N)N)NC(=O)[C@H](CC(C)C)NC(=O)[C@H](Cc1ccccc1)NC(=O)[C@H](CC(N)=O)NC(=O)[C@H](C)NC(=O)[C@H](CC(C)C)NC(=O)[C@H](CCCNC(=N)N)NC(=O)[C@H](CCC(N)=O)NC(=O)[C@@H](NC(=O)[C@H](C)NC(=O)[C@@H]1CSSC[C@H](NC(=O)[C@@H](N)CCCCNC(=O)CC[C@H](NC(=O)CC[C@H](NC(=O)CCCCCCCCCCCCCCCCC(=O)O)C(=O)O)C(=O)O)C(=O)N[C@@H](CC(N)=O)C(=O)N[C@@H]([C@@H](C)O)C(=O)N[C@@H](C)C(=O)N[C@@H]([C@@H](C)O)C(=O)N1)[C@@H](C)O)C(=O)N[C@@H](CC(C)C)C(=O)N1CCC[C@H]1C(=O)N1CCC[C@H]1C(=O)N[C@H](C(=O)N[C@@H](CCC(=O)O)C(=O)N[C@H](C(=O)NCC(=O)N[C@@H](CO)C(=O)N[C@@H](CC(N)=O)C(=O)N[C@H](C(=O)N[C@@H](Cc1ccc(O)cc1)C(N)=O)[C@@H](C)O)C(C)C)[C@@H](C)O` [Peptide 50, K(γE-γE-C18diacid)[CNTATC]ATQRLANFLRHSS(Aib)NFGPILPPTEVGSNTY-amide] (H-K([γGlu-γGlu-C18 diacid])CNTATCATQRLANFLRHSS[Aib]NFGPILPPTEVGSNTY-NH2; disulfide 2-7; N-terminus assumed) are 18900 pM, 54 and 349 pM.
